# “And” between values parts separate entries of the source, which are not always exact repeats. Identical values can stand only once.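 Method: 48-hour compound exposure of cells in 96-well plates, five concentrations, linear interpolation of endpoints. GI50 is the concentration that inhibits growth by half. TGI: total growth inhibition.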
# How the values were obtained:
# Assay in all cases: NCI-60 cell line screen, 48 h
# OVCAR-4 ovarian = test system: OVCAR-4 ovarian
# LOX IMVI melanoma = test system: LOX IMVI melanoma
# HOP-62 NSCLC = test system: HOP-62 NSCLC
# SK-OV-3 ovarian = test system: SK-OV-3 ovarian
# 786-0 renal = test system: 786-0 renal
# SN12C renal = test system: SN12C renal
# OVCAR-8 ovarian = test system: OVCAR-8 ovarian
# NCI-H460 lung = test system: NCI-H460 lung
# T-47D breast = test system: T-47D breast
# SR leukemia = test system: SR leukemia
Compound,GI50 (OVCAR-4 ovarian),TGI (OVCAR-4 ovarian),GI50 (LOX IMVI melanoma),TGI (LOX IMVI melanoma),GI50 (HOP-62 NSCLC),TGI (HOP-62 NSCLC),GI50 (SK-OV-3 ovarian),TGI (SK-OV-3 ovarian),GI50 (786-0 renal),TGI (786-0 renal),GI50 (SN12C renal),TGI (SN12C renal),GI50 (OVCAR-8 ovarian),TGI (OVCAR-8 ovarian),GI50 (NCI-H460 lung),TGI (NCI-H460 lung),GI50 (T-47D breast),TGI (T-47D breast),GI50 (SR leukemia) [µM],TGI (SR leukemia) [µM]
COc1cc2ncnc(Nc3ccc(F)c(Cl)c3)c2cc1NC(=O)/C=C/CN1CCCCC1,1.16 µM and 1.79 µM,4.86 µM and 7.17 µM,1.75 µM and 1.69 µM,3.27 µM and 3.24 µM,2.11 µM and 3.02 µM,5.65 µM and > 9.66 µM,0.0171 µM and 0.00478 µM,2.3 µM and 2.23 µM,1.5 µM and 1.29 µM,2.98 µM and 2.75 µM,0.429 µM and 0.389 µM,3.35 µM and 2.3 µM,1.28 µM and 1.64 µM,5.35 µM and > 6.21 µM,2.18 µM and 2.4 µM,6.22 µM and 7 µM,0.381 µM and 0.0625 µM,3.67 µM and 4.9 µM,–,–
CN1C(=O)N(C)C2C1NN=c1s/c(=C\c3ccc(F)cc3)c(=O)n12 (stereo not given),3.05 µM,> 100 µM,6.01 µM,> 100 µM,3.48 µM,> 100 µM,3.57 µM,> 100 µM,7.55 µM,> 100 µM,6.97 µM,> 100 µM,3.78 µM,> 100 µM,2.77 µM,> 100 µM,1.25 µM,> 100 µM,0.374,20
O=C1C(c2ccccc2)=[N+]([O-])c2ccccc21,–,15.3 µM,–,14.2 µM,–,37.4 µM,–,31.4 µM,–,34.1 µM,–,34.2 µM,–,32.6 µM,–,32.7 µM,–,7.25 µM,–,23.5
O=c1cccc(C2CC(CO)C3CCCCN3C2)[nH]1 (stereo not given),–,> 100 µM,–,> 100 µM,–,–,–,> 100 µM,–,> 100 µM,–,> 100 µM,–,> 100 µM,–,> 100 µM,–,> 100 µM,–,–
COc1ccc(N2C(=O)[C@H]3CC(C)c4c([nH]c5ccccc45)[C@H]3C2=O)cc1 (stereo not given in full),–,30.6 µM,–,63.8 µM,–,16.3 µM,–,23.6 µM,–,16.4 µM,–,83.9 µM,–,55.9 µM,–,41.9 µM,–,68.8 µM,–,> 100
CCN(CC)C(=S)Oc1cc2oc(=O)cc(C)c2cc1Cl,–,> 100 µM,–,> 100 µM,–,> 100 µM,–,–,–,> 100 µM,–,> 100 µM,–,> 100 µM,–,> 100 µM,–,> 100 µM,–,> 100
CC[PH+](CC)CC.O=COC1OC([S-])C(OC=O)C(OC=O)C1OC=O.[Au+] (stereo not given),1.89 µM,4.53 µM,0.902 µM,2.41 µM,1.58 µM,3.2 µM,1.85 µM,3.36 µM,1.51 µM,2.85 µM,1.44 µM,2.75 µM,2.13 µM,5.55 µM,1.71 µM,3.69 µM,1.96 µM,6.47 µM,–,–
COc1ccc2cc(-c3c(-c4ccncc4)nc(-c4ccc(S(C)(=O)=O)cc4C)n3C)ccc2c1,5.3 µM,22 µM,9.01 µM,> 25 µM,8.81 µM,> 23.9 µM,6.5 µM,16.7 µM,11.4 µM,> 25 µM,8.22 µM,> 25 µM,9.01 µM,> 25 µM,7.77 µM,> 25 µM,5.14 µM,> 18.6 µM,13,> 25
CC[C@]1(O)C(=O)OCc2c1cc1n(c2=O)Cc2cc3c(N)cccc3nc2-1,–,> 100 µM,–,> 100 µM,–,> 100 µM,–,> 100 µM,–,> 100 µM,–,> 100 µM,–,> 100 µM,–,> 100 µM,–,–,–,> 100
C/C=C/C=C/C=C/C=C/C(=O)O,–,> 100 µM,–,> 100 µM,–,> 100 µM,–,> 100 µM,–,> 100 µM,–,> 100 µM,–,> 100 µM,–,> 100 µM,–,–,–,> 100
O=C1c2cc(Cl)ccc2-c2c1c1ccc([N+](=O)[O-])cc1c(=O)n2CCCBr,78.2 µM,> 100 µM,2.37 µM,24 µM,2.46 µM,23 µM,7.79 µM,> 100 µM,2.62 µM,9.31 µM,2.5 µM,8.89 µM,8.35 µM,> 100 µM,0.931 µM,> 100 µM,3.23 µM,33.8 µM,–,–
CCOC(=O)/C=C/C1=C(c2cccs2)c2ccccc2CC1,38.9 µM,> 100 µM,15.9 µM,30 µM,38 µM,> 100 µM,31.6 µM,> 100 µM,35.5 µM,> 100 µM,28.3 µM,> 100 µM,30.5 µM,> 100 µM,31.1 µM,> 100 µM,36.5 µM,> 100 µM,–,–
O=C(N/N=C(/CCN1CCCC1)CC(c1ccccc1)c1c(O)c2ccccc2oc1=O)c1ccncc1 (stereo not given),–,> 100 µM,–,> 100 µM,–,> 100 µM,–,> 100 µM,–,> 100 µM,–,> 100 µM,–,> 100 µM,–,> 100 µM,–,–,–,48.6
Nc1ccccc1C#C/C=C\C#Cc1ccccc1,12.1 µM,32.4 µM,10.3 µM,24.1 µM,15 µM,33.6 µM,32 µM,81.3 µM,16.3 µM,40.9 µM,13.4 µM,29.7 µM,48 µM,> 100 µM,18.4 µM,52.6 µM,17.7 µM,38.3 µM,–,–
CCOP(=O)(OCC)OC(C#N)c1ccc(-c2ccccc2)cc1 (stereo not given),–,36.6 µM,–,29.1 µM,–,> 100 µM,–,78.5 µM,–,31.6 µM,–,36.8 µM,–,37.4 µM,–,36.3 µM,–,–,–,59
COC1C2C=CC(C2)[C@H]1[N+](=O)[O-] (stereo not given in full),–,> 100 µM,–,> 100 µM,–,> 100 µM,–,> 100 µM,–,> 100 µM,–,> 100 µM,–,> 100 µM,–,> 100 µM,–,–,–,> 100
CCN(CC)C(=S)SC,–,–,–,> 100 µM,–,> 100 µM,–,> 100 µM,–,> 100 µM,–,> 100 µM,–,> 100 µM,–,> 100 µM,–,> 100 µM,–,–
